Results published in patent publication US9879043B1, “Synthesis of non-natural cofactor analogs of S-adenosyl-L-methionine using methionine adenosyltransferase” (University of Kentucky Research Foundation, priority 2013, dated 2018).

What was measured:
Type in all cases: biochemical
[1] = biological target: Escherichia coli MAT (eMAT) (Escherichia coli, UniProt P0A817); assay: MAT assay, turnover of S/Se-Met analogs to S(Se)AM analogs (RP-HPLC end point); conditions: 2 mM Met analog, 1 mM ATP, 5 μM MAT, pH 8, 4 h, 37° C.; average of two assays
Protocol: (§1) Standard uniform assay conditions (2 mM Met analog, 1 mM ATP, 5 μM MAT, 25 mM Tris, 5 mM MgCl2, 50 mM KCl, pH 8, 4 h) were adopted to facilitate this broad assessment. For the thermophilic counterpart (mMAT), reactions were conducted at 65° C., while all other reactions were incubated at 37° C. Production of SAM analogs was determined by an RP-HPLC end point assay to afford complete analysis of the desired SAM analog and/or any corresponding degradation products known to directly derive from the desired SAM analog intermediate. Putative SAM analog and SAM-derived degradative product formation was subsequently confirmed via high-resolution mass spectrometry (HRMS) analysis for all positive reactions (see Table 2).
(§2) To monitor MAT reactions, analytical RP HPLC employed a Luna C18 column (5 μm, 4.6 mm×250 mm; Phenomenex, Torrance, Calif., USA) [gradient of 10% B to 40% B over 15 min, 40% B to 75% B over 5 min (A=10 mM NaH2PO4, 5 mM octane sulfonic acid, pH was adjusted to 3.5 using phosphoric acid; B=acetonitrile) flow rate=1 mL min^−1; A254].
(§3) In vitro MAT reactions were conducted in a volume of 50 μl with 2 mM S/Se-alkylated analog (compounds 2-30), 1 mM ATP and 5 μM purified MAT in 25 mM Tris buffer pH 8.0, 5 mM MgCl2, 50 mM KCl for 4 h. The sMAT and mMAT reactions were conducted at 65° C. while hMATs and eMAT were incubated at 37° C. Reactions were quenched by adding an equal volume of methanol followed by centrifugation (10,000×g for 15 min) to remove the precipitated protein and product formation for each reaction was subsequently analyzed by RP-HPLC using Method D (FIG. 15, first column). For each reaction, percent yield was based upon the integration of species at 254 nm and calculated by dividing the integrated area of product and/or decomposed product by the sum of integrated area of product and/or decomposed product and the remaining substrate. The assays were repeated twice under identical conditions, and Table 2 (and FIG. 5) represents an average value of two assays. The inclusion of adenine and 5′-R-thio-5′-adenosine in these calculations is based upon the established SAM and ATP chemical decomposition pathways which indicate adenine and 5′-R-thio-5′-adenosine to only derive from SAM (not ATP). All putative products were subsequently confirmed by high resolution electrospray ionization (ESI) mass spectra with positive (+) and/or negative (−) mode.

[2] = biological target: human MAT I catalytic subunit alpha (hMAT1A) (Homo sapiens, UniProt Q00266); assay: as above; conditions: 2 mM Met analog, 1 mM ATP, 5 μM MAT, pH 8, 4 h, 37° C.; average of two assays
Protocol: as §1, with “intermediate.” for “intermediate. Putative SAM analog and SAM-derived degradative product formation was subsequently confirmed via high-resolution mass spectrometry (HRMS) analysis for all positive reactions (see Table 2).”
as §2
as §3, with “The” for “In vitro MAT reactions were conducted in a volume of 50 μl with 2 mM S/Se-alkylated analog (compounds 2-30), 1 mM ATP and 5 μM purified MAT in 25 mM Tris buffer pH 8.0, 5 mM MgCl2, 50 mM KCl for 4 h. The”

[3] = biological target: human MAT II catalytic alpha and regulatory beta subunit (hMAT2) (Homo sapiens, UniProt P31153); assay: as above; conditions: 2 mM Met analog, 1 mM ATP, 5 μM MAT, pH 8, 4 h, 37° C.; average of two assays
Protocol: as §1, with “intermediate.” for “intermediate. Putative SAM analog and SAM-derived degradative product formation was subsequently confirmed via high-resolution mass spectrometry (HRMS) analysis for all positive reactions (see Table 2).”
as §2
as §3, with “The” for “In vitro MAT reactions were conducted in a volume of 50 μl with 2 mM S/Se-alkylated analog (compounds 2-30), 1 mM ATP and 5 μM purified MAT in 25 mM Tris buffer pH 8.0, 5 mM MgCl2, 50 mM KCl for 4 h. The”

[4] = biological target: human MAT II catalytic alpha subunit alone (hMAT2A) (Homo sapiens, UniProt P31153); assay: as above; conditions: 2 mM Met analog, 1 mM ATP, 5 μM MAT, pH 8, 4 h, 37° C.; average of two assays
Protocol: as §1, with “intermediate.” for “intermediate. Putative SAM analog and SAM-derived degradative product formation was subsequently confirmed via high-resolution mass spectrometry (HRMS) analysis for all positive reactions (see Table 2).”
as §2
as §3, with “The” for “In vitro MAT reactions were conducted in a volume of 50 μl with 2 mM S/Se-alkylated analog (compounds 2-30), 1 mM ATP and 5 μM purified MAT in 25 mM Tris buffer pH 8.0, 5 mM MgCl2, 50 mM KCl for 4 h. The”

[5] = biological target: T1, Methanocaldococcus jannaschii MAT (mMAT) (Methanocaldococcus jannaschii, UniProt Q58605); conditions: 2 mM Met analog, 1 mM ATP, 5 μM MAT, pH 8, 4 h, 65° C.; average of two assays
T1 sequence (Q58605 1-406): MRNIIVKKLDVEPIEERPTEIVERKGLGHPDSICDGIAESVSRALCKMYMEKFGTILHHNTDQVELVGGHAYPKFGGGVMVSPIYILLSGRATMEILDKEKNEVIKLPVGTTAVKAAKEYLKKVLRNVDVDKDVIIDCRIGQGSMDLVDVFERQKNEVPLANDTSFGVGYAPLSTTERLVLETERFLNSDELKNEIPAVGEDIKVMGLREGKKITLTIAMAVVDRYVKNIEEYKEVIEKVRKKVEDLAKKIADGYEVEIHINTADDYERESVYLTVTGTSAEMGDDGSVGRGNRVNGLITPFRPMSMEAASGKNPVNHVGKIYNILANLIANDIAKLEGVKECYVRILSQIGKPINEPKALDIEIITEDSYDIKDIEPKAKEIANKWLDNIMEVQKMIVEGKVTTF
Protocol: as §1, with “intermediate.” for “intermediate. Putative SAM analog and SAM-derived degradative product formation was subsequently confirmed via high-resolution mass spectrometry (HRMS) analysis for all positive reactions (see Table 2).”
as §2
as §3, with “The” for “In vitro MAT reactions were conducted in a volume of 50 μl with 2 mM S/Se-alkylated analog (compounds 2-30), 1 mM ATP and 5 μM purified MAT in 25 mM Tris buffer pH 8.0, 5 mM MgCl2, 50 mM KCl for 4 h. The”

[6] = biological target: T2, Sulfolobus solfataricus MAT (sMAT) (Saccharolobus solfataricus, UniProt Q980S9); conditions: 2 mM analog, 1 mM ATP, 5 μM sMAT, pH 8.0, 4 h at 65° C.; average of two assays
T2 sequence (Q980S9 1-404): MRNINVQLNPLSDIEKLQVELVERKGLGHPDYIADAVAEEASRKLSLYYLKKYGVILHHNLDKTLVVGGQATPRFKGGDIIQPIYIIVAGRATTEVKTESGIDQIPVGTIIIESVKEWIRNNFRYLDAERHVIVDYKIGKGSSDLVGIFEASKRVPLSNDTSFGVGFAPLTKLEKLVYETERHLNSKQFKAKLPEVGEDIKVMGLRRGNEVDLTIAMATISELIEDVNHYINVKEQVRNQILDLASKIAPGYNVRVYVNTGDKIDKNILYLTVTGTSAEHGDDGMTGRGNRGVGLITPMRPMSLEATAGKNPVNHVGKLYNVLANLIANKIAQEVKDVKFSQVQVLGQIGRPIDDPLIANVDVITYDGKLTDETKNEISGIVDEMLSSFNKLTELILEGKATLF
Protocol: In-vitro sMAT assay: In vitro sMAT reactions were conducted in a volume of 50 μl with 2 mM S/Se-alkylated analog, 1 mM ATP and 5 μM purified sMAT in 25 mM Tris buffer pH 8.0, 5 mM MgCl2, 50 mM KCl for 4 h at 65° C. Reactions were quenched by adding an equal volume of methanol followed by centrifugation (10,000×g for 15 min) to remove the precipitated protein and product formation for each reaction was subsequently analyzed by reverse phase HPLC (RP-HPLC) using method described below. For each reaction, percent yield was based upon the integration of species at 254 nm and calculated by dividing the integrated area of product and/or decomposed product by the sum of integrated area of product and/or decomposed product and the remaining substrate. The assays were repeated twice under identical conditions, and Table 4 (and FIG. 17) represents an average value of two assays. The inclusion of adenine and 5′-R-thio-5′-adenosine in these calculations is based upon the established SAM and ATP chemical decomposition pathways which indicate adenine and 5′-R-thio-5′-adenosine to only derive from SAM (not ATP). All putative products were subsequently confirmed by high resolution electrospray ionization (ESI) mass spectra with positive (+) and/or negative (−) mode.
RP-HPLC method: Reactions were quenched by the addition of equal volume of methanol followed by centrifugation at 10,000 g for 15 min to remove precipitated protein before applying on an analytical Varian ProStar HPLC [Luna C18 column, 5 μm, 4.6 mm×250 mm; Phenomenex, Torrance, Calif., USA; gradient of 10% B to 40% B over 15 min, 40% B to 75% B over 5 min (A=10 mM NaH2PO4, 5 mM octane sulfonic acid, pH was adjusted to 3.5 using phosphoric acid; B=acetonitrile) flow rate=1 mL min^−1; A254].

SMILES	Percentage Turn-over eMAT [1]	Percentage Turn-over hMAT1A [2]	Percentage Turn-over hMAT2 [3]	Percentage Turn-over hMAT2A [4]	Percentage Turn-over mMAT [5]	Percentage Turn-Over (sMAT) [6]
[N-]=[N+]=NCCCSCC[C@H](N)C(=O)O [compound 21, (2S)-2-amino-4-[(3-azidopropyl)sulfanyl]butanoic acid]	0%	0%	46%	19%	31%	60%
CSCC[C@H](N)C(=O)O [compound 2, L-methionine]			100%	100%		
C#CC[Se]CC[C@H](N)C(=O)O [compound 4-Se, (2S)-2-amino-4-(prop-2-yn-1-ylselanyl)butanoic acid]			58%	44%		
CC(C)[Se]CC[C@H](N)C(=O)O [compound 9-Se, (2S)-2-amino-4-(propan-2-ylselanyl)butanoic acid]			10%	11%		
C#CCCSCC[C@H](N)C(=O)O [compound 10, (2S)-2-amino-4-(but-3-yn-1-ylsulfanyl)butanoic acid]	0%	0%	40%	12%	16%	30%
CC(C)SCC[C@H](N)C(=O)O [compound 9, (2S)-2-amino-4-(propan-2-ylsulfanyl)butanoic acid]	0%	2%	2%	2%	8%	53%
CCCC[Se]CC[C@H](N)C(=O)O [compound 13-Se, (2S)-2-amino-4-(butylselanyl)butanoic acid]			49%	26%		
C#CCC[Se]CC[C@H](N)C(=O)O [compound 10-Se, (2S)-2-amino-4-(but-3-yn-1-ylselanyl)butanoic acid]			55%	22%		
N#CC[Se]CC[C@H](N)C(=O)O [compound 6-Se, (2S)-2-amino-4-[(cyanomethyl)selanyl]butanoic acid]			33%	23%		
[N-]=[N+]=NC/C=C/C[Se]CC[C@H](N)C(=O)O [compound 23-Se, (2S)-2-amino-4-{[(2E)-4-azidobut-2-en-1-yl]selanyl}butanoic acid]			15%	9%		
CC(C)=CC[Se]CC[C@H](N)C(=O)O [compound 19-Se, (2S)-2-amino-4-[(3-methylbut-2-en-1-yl)selanyl]butanoic acid]			15%	9%		
C=CC[Se]CC[C@H](N)C(=O)O [compound 7-Se, (2S)-2-amino-4-(prop-2-en-1-ylselanyl)butanoic acid]			59%	42%		
C=C(C)C[Se]CC[C@H](N)C(=O)O [compound 12-Se, (2S)-2-amino-4-[(2-methylprop-2-en-1-yl)selanyl]butanoic acid]			12%	11%		
CC[Se]CC[C@H](N)C(=O)O [compound 3-Se, (2S)-2-amino-4-(ethylselanyl)butanoic acid]			82%	53%		
CCC[Se]CC[C@H](N)C(=O)O [compound 8-Se, (2S)-2-amino-4-(propylselanyl)butanoic acid]			74%	24%		
NC/C=C/C[Se]CC[C@H](N)C(=O)O [compound 24-Se, (2S)-2-amino-4-{[(2E)-4-aminobut-2-en-1-yl]selanyl}butanoic acid]			25%	16%		
C[Se]CC[C@H](N)C(=O)O [2-Se, L-selenomethionine, reference compound]			100%	100%		
